pIC50: −log10 of the molar value.
Biological target: Dual specificity tyrosine-phosphorylation-regulated kinase 1A (Homo sapiens, UniProt Q13627)
Experiment: DYRK1A Inhibition Assay
Method: 1. Add 5 μL enzyme & substrate mixture to each well in Column 2-23 and A24-H24 wells of the 384-well assay plate;2. Add 5 μL 0% Phosphorylation control to A1-H1 and I24-P24 wells of the assay plate;3. Add 5 μL 100% Phosphorylation control to I1-P1 wells of the assay plate;4. Spin the assay plate (1000 rpm, 1 minute @23° C.);5. Incubate enzyme with compounds for 15 minutes at 23° C.;6. Add 5 μL ATP solution to each well of the assay plate;7. Spin the plate (1000 rpm, 1 minute @23° C.);8. Incubate the assay plate for 90 minutes at 23° C.;9. Add 10 μL Development reagent A to each well of the assay plate;10. Centrifuge the plate at 1000 rpm about 15 seconds and seal a film over assay plate. Incubate the assay plate for 30 minutes at 23° C.11. Read assay plates on Envision (see Tables A-D).

SMILES	pIC50
COC(=O)c1ccc2c(cnc3[nH]cc(-c4ccc(F)cc4)c32)c1 [US20250066349, Compound I.4]	< 6.00
COC1CC=C(c2n[nH]c3ncc4ccc(-c5cnn(C)c5)cc4c23)CC1 (configuration not stated) [US20250066349, Compound I.8]	> 8.00
Cn1cc(-c2ccc3cnc4[nH]cc(C5CCC(O)CC5)c4c3c2)cn1 (configuration not stated) [US20250066349, Compound I.14]	> 8.00
Cc1c(C2CCOCC2)[nH]c2ncc3ccc(-c4cnn(C)c4)cc3c12 [US20250066349, Compound I.51]	> 8.00
Cn1cc(-c2ccc3c(-c4ccc5cnn(C)c5c4)cnn3c2)ccc1=O [US20250066349, Compound II.1]	> 8.00
CN1CCC(C(=O)Nc2ncc(-c3ccc4c(c3)COC4=O)s2)CC1 [US20250066349, Compound III.2]	> 7.30
CC(=O)N1CCc2c(cnc3[nH]cc(C4CCC4)c23)C1 [US20250066349, Compound IV.1]	> 6.30
Cn1ncc2c3ccc(C#N)cc3ncc21 [US20250066349, Compound IV.14]	> 6.30
CN1CCc2c([nH]c(=O)c3cc(C4CCOCC4)ccc23)C1 [US20250066349, Compound IV.22]	< 5.30

Now from value to compound:

pIC50	SMILES
> 8.00	Cn1cc(-c2ccc3cnc4[nH]cc(C5CCC5)c4c3c2)cn1 [US20250066349, Compound I.1]
> 8.00	Cc1ncc(-c2ccc3cnc4[nH]cc(C5CCCCC5)c4c3c2)s1 [US20250066349, Compound I.6]
> 8.00	COC1CCC(c2c[nH]c3ncc4ccc(-c5cnn(C)c5)cc4c23)CC1 (configuration not stated) [US20250066349, Compound I.13]
> 8.00	Cn1cc(-c2ccc3cnc4[nH]cc(C5CC(O)C5)c4c3c2)cn1 (configuration not stated) [US20250066349, Compound I.18]
> 8.00	COC1CC(c2c[nH]c3ncc4ccc(-c5cnn(C)c5)cc4c23)C1 (configuration not stated) [US20250066349, Compound I.23]
> 8.00	Cn1cc(-c2ccc3cnc4[nH]cc(C5CCC(C(=O)O)CC5)c4c3c2)cn1 (configuration not stated) [US20250066349, Compound I.24]
> 8.00	Cn1cc(-c2ccc3c(-c4ccc5cnsc5c4)cnn3c2)ccc1=O [US20250066349, Compound II.2]
> 7.30	CN1CCC(C(=O)Nc2ncc(-c3ccc4oncc4c3)s2)CC1 [US20250066349, Compound III.4]
> 6.30	CC(=O)N1CCc2c(cnc3[nH]cc(-c4ccc5c(c4)OCO5)c23)C1 [US20250066349, Compound IV.6]
> 6.30	CN(C)CCOc1ccc2c(c1)[nH]c(=O)c1cc(-c3ccncc3)cn12 [US20250066349, Compound IV.18]
< 5.30	N#Cc1ccc2c(c1)ncc1c(Oc3cccc(Cl)c3)cncc12 [US20250066349, Compound IV.21]
< 5.30	CN1CCc2c([nH]c(=O)c3cc(C4=CCOCC4)ccc23)C1 [US20250066349, Compound IV.23]
< 5.30	COc1ccc(-c2ccc3c4c([nH]c(=O)c3c2)CN(C)CC4)cc1OC [US20250066349, Compound IV.24]
